What was measured:
[1] = species: Oryctolagus cuniculus; experiment: Myocardial infarction (MI) size was calculated as a percentage of the infarct area to the total area of the left ventricle of male chinchilla rabbits; assay type: functional, Heart left ventricle; set-up: concentration or dose not given beside the values
[2] = Lethal dose to produce acute toxicity was evaluated in white crossbred mice weighing 20-25 g; conditions: mouse, in vivo

Row | Compound | Activity [1] | LD50 [2]
1 | O=C(O)CCC1=C(O)C(=O)c2c(O)c(O)c(O)c(O)c2C1=O | 7.9% | 95 mg/kg
2 | CCCC1=C(O)C(=O)c2c(O)c(O)c(O)c(O)c2C1=O | 10.08% | 80 mg/kg
3 | O=[N+]([O-])OCC(CO[N+](=O)[O-])O[N+](=O)[O-] [NITROGLYCERIN] | 15.23% | –
4 | CCc1c(O)c(O)c2c(c1O)C(=O)C(SC[C@H](NC(=O)CC[C@H](N)C(=O)O)C(=O)NCC(=O)O)=C(SC[C@H](NC(=O)CC[C@H](N)C(=O)O)C(=O)NCC(=O)O)C2=O | 8.35% | 1480 mg/kg
5 | N[C@@H](CCC(=O)N[C@@H](CSC1=C(SC[C@H](NC(=O)CC[C@H](N)C(=O)O)C(=O)NCC(=O)O)C(=O)c2c(O)c(O)c(O)c(O)c2C1=O)C(=O)NCC(=O)O)C(=O)O | 12.37% | 1210 mg/kg
6 | CCC1=C(O)C(=O)c2c(O)c(O)c(O)c(O)c2C1=O [ECHINOCHROME A] | 7.76% | 87 mg/kg
7 | Cc1c(O)c(O)c2c(c1O)C(=O)C(SC[C@H](NC(=O)CC[C@H](N)C(=O)O)C(=O)NCC(=O)O)=C(SC[C@H](NC(=O)CC[C@H](N)C(=O)O)C(=O)NCC(=O)O)C2=O | 7.15% | 1350 mg/kg
8 | COc1ccc(CCN(C)CCCC(C#N)(c2ccc(OC)c(OC)c2)C(C)C)cc1OC (stereo not drawn) [VERAPAMIL] | 6.51% | –
9 | Cc1c(O)c(O)c2c(c1O)C(=O)C(SCCO)=C(SCCO)C2=O | 9.97% | 150 mg/kg
10 | CC(C)(C)C1=CC(=O)c2c(O)c(O)c(O)c(O)c2C1=O | 10.18% | 170 mg/kg

From ChEMBL document CHEMBL1131646, “Synthesis of some hydroxynaphthazarins and their cardioprotective effects under ischemia-reperfusion in vivo” (Bioorg Med Chem Lett, 1998)
